Read-outs that look alike come from different tables or passages of the source.
Key:
Du145 = assay: High-throughput calcein AM cytotoxicity assay, Du145; type: cell-based, human; conditions: Du145 cells
Text: (§1) Standard errors are depicted with error bars.

MCF7 = assay: High-throughput calcein AM cytotoxicity assay, MCF7; type: cell-based, human; conditions: MCF7 cells; read-out: IC50, MCF7
Text: as §1

HCT-116 = assay: High-throughput calcein AM cytotoxicity assay, HCT-116; type: cell-based, human; conditions: HCT-116 cells; read-out: IC50, HCT-116
Text: as §1

Hep3B = assay: High-throughput calcein AM cytotoxicity assay, Hep3B; type: cell-based, human; conditions: Hep 3B cells
Text: as §1

NCI-H460 = assay: High-throughput calcein AM cytotoxicity assay, NCI-H460; type: cell-based, human; conditions: NCI-H460 cells; read-out: IC50, NCI-H460
Text: as §1

A549 = assay: High-throughput calcein AM cytotoxicity assay, A549; type: cell-based, human; conditions: A549 cells
Text: as §1

NCI/ADR-RES = assay: cells; type: cell-based, human; conditions: NCI/ADR-RES cells
Text: (§2) In the assay, live cells were distinguished by the presence of a ubiquitous intracellular enzymatic activity which converts the non-fluorescent cell-permeable molecule calcein AM to the intensely fluorescent molecule calcein, which is retained within live cells. The IC50 value for each library member represents at least six replicates of dose-response experiments conducted over five concentrations using two-fold dilutions. […] Standard errors are depicted with error bars. Numerical values and corresponding error values can be found in Table 4. Du145: […]; MCF7: human breast carcinoma; HCT-116: human colon carcinoma, Hep3B: human liver carcinoma; SF-268: human CNS glioblastoma; SK-OV-3: human ovary adenocarcinoma; NCI-H460: human lung carcinoma; A549: human lung adenocarcinoma; NCI/ADR-RES: human breast carcinoma; NmuMG: mouse mammary normal epithelial.
(§3) Cell Culture: All cell lines except NmuMG were maintained in RPMI 1640 medium from InVitrogen (Cat No. 11875-085) supplemented with 10% w/v fetal bovine serum (FBS) from ICN (Cat No. 2916154) and penicillin-streptomycin (PS) (100 U/mL and 100 μg/mL) from InVitrogen (Cat No. 15140-122). NmuMG cells were maintained in DMEM medium from InVitrogen (Cat No. 11965-084) supplemented with 10% w/v fetal bovine serum (FBS) from ICN (Cat No. 2916154), 10 μg/ml insulin (InVitrogen Cat No 12585-014), and penicillin-streptomycin (PS) (100 U/mL and 100 μg/mL) from InVitrogen (Cat No. 15140-122). Cells were harvested by trypsinization using 0.25% w/v trypsin and 0.1% w/v EDTA from InVitrogen (Cat No. 15-050-057) and then counted in a hemocytometer in duplicate with better than 10% agreement in field counts. Cells were plated at a cell density of 10,000-15,000 cells/well of each Corning Costar 96-well black tissue culture treated microtiter plate (Fisher Cat No. 07-200-627). Cells were grown for 1 h at 37° C., with 5% CO2 in a humidified incubator to allow cell attachment to occur before compound addition.
(§4) Library Member Handling and Preparation for Cytotoxicity Assays: Library members were stored at −20° C. under dessicating conditions before the assay. Library member stocks (100×) were prepared in Corning Costar polypropylene 96-well V-bottom polypropylene microtiter plates (Fisher Cat No. 07-200-695). Five serial 1:2 dilutions were made with anhydrous DMSO at 100× the final concentration used in the assay.
(§5) Library Member Addition: The library member-containing plates were diluted 1:10 with complete cell culture media. The 10× stocks (10 μL) were added to the attached cells using a Biomek FX liquid handler (Beckman-Coulter). Library member stocks (10 μL) were added to 90 μL of cells in each plate to insure full mixing of stocks with culture media using a Beckman FX liquid handler with 96-well head.
(§6) Determination of Cytotoxicity: Cells were incubated with the library members for 72 h before fluorescence reading. Test plates were removed from the incubator and washed 1× in sterile PBS to remove serum containing calcium esterases. Calcein AM reagent (30 μL, […]) was added and the cells were incubated for 30 min at 37° C. Plates were read for emission using a fluorescein filter (excitation 485 nm, emission 535 nm).
(§7) IC50 Calculation: For each library member, at least six dose response experiments were conducted. […] To calculate IC50, percent inhibitions were plotted as a function of log [concentration] and then fit to a four-parameter logistic model that allowed for a variable Hill slope using XLfit 4.1.
(§8) Cytotoxicity Assays. All cell lines except NmuMG were maintained in RPMI 1640 medium supplemented with 10% w/v fetal bovine serum (FBS) and penicillin-streptomycin (PS) (100 U/mL and 100 μg/mL).

SF-268 = assay: cells; type: cell-based, human; conditions: SF-268 cells; read-out: IC50, SF-268
Text: as §2, §3, §4, §5, §6, §7, §8

SK-OV-3 = assay: cells; type: cell-based, human; conditions: SK-OV-3 cells
Text: as §2, §3, §4, §5, §6, §7, §8

NmuMG = assay: cells; type: cell-based, mouse
Text: as §2, §3, §4, §5, §6, §7, §8

[1] = NmuMG mouse mammary normal epithelial control line, read-out: IC50, NmuMG

Row | Molecule | IC50 (Du145; read-out: IC50, Du145) [µM] | IC50 (MCF7) [µM] | IC50 (HCT-116) [µM] | IC50 (Hep3B; read-out: IC50, Hep 3B) [µM] | IC50 (NCI-H460) [µM] | IC50 (A549; read-out: IC50, A549) [µM] | IC50 (NCI/ADR-RES; read-out: IC50, NCI/ADR-RES) [µM] | IC50 (SF-268) [µM] | IC50 (SK-OV-3; read-out: IC50, SK-OV-3) [µM] | IC50 (NmuMG; [1]) [µM] | IC50 (Du145; read-out: IC50) [µM] | IC50 (Hep3B; read-out: IC50) [µM] | IC50 (A549; read-out: IC50) [µM] | IC50 (NCI/ADR-RES; read-out: IC50) [µM] | IC50 (SK-OV-3; read-out: IC50) [µM] | IC50 (NmuMG; NmuMG cells (mouse mammary normal epithelial control line), read-out: IC50) [µM]
1 | CON(C1CCC2(C)C(CCC3C2CCC2(C)C(C4=CC(=O)OC4)CCC32O)C1)C1OC(CF)C(O)C(O)C1O [13α, 6-deoxy-6-fluoro-D-glucoside] | > 25 | > 25 | > 25 | > 25 | > 25 | > 25 | > 25 | > 25 | > 25 | > 25 |  |  |  |  |  | 
2 | 6-keto-D-galactoside [31β] | 1.5 | 9 | 3.1 | 3.1 | 2.4 | 2.3 | 1 | 8 | 2.9 | > 25 |  |  |  |  |  | 
3 | CON([C@H]1CC[C@@]2(C)[C@H](CC[C@@H]3[C@@H]2CC[C@]2(C)[C@@H](C4=CC(=O)OC4)CC[C@]32O)C1)[C@H]1C[C@@H](O)[C@@H](O)[C@@H](CO)O1 [9β, 2-deoxy-D-galactoside] | 7 | 5.1 | 10 | 3.6 | 2 | 1.3 | 0.9 | 8 | 4 | > 25 |  |  |  |  |  | 
4 | CON(C1CCC2(C)C(CCC3C2CCC2(C)C(C4=CC(=O)OC4)CCC32O)C1)C1OC(CO)C(O)C(O)C1F [12α, 2-deoxy-2-fluoro-D-glucoside] | > 25 | > 25 | > 25 | > 25 | > 25 | > 25 | > 25 | > 25 | > 25 | > 25 |  |  |  |  |  | 
5 | C[C@]12CC[C@H](O[C@@H]3O[C@H](CO)[C@@H](O)[C@H](O)[C@H]3O)C[C@H]1CC[C@@H]1[C@@H]2CC[C@]2(C)[C@@H](C3=CC(=O)OC3)CC[C@]12O [43β, O-D-glucoside] | 0.22 | 0.7 | 0.6 | 0.21 | 0.39 | 0.29 | 0.19 | 0.22 | 0.4 | > 25 |  |  |  |  |  | 
6 | CON(C1CCC2(C)C(CCC3C2CCC2(C)C(C4=CC(=O)OC4)CCC32O)C1)C1OCC(O)C(O)C1O [24α, D-xyloside] | > 25 | > 25 | > 25 | > 25 | > 25 | > 25 |  |  |  |  |  |  |  |  |  | 
7 | CON(C1CCC2(C)C(CCC3C2CCC2(C)C(C4=CC(=O)OC4)CCC32O)C1)C1OCC(O)C(O)C1O [23α, L-xyloside] | > 25 | > 25 | > 25 | > 25 | > 25 | > 25 |  |  |  |  |  |  |  |  |  | 
8 | CON(C1CCC2(C)C(CCC3C2CCC2(C)C(C4=CC(=O)OC4)CCC32O)C1)C1OC(CO)C(OC2OC(CO)C(O)C(O)C2O)C(O)C1O (stereo not drawn) [36β, lactoside] |  | > 25 | > 25 | 26 | > 25 | 24 | 13 | > 25 | 19 | > 25 |  |  |  |  |  | 
9 | CON(C1CCC2(C)C(CCC3C2CCC2(C)C(C4=CC(=O)OC4)CCC32O)C1)C1OC(CO)C(OC2OC(CO)C(O)C(O)C2O)C(O)C1O (stereo not drawn) [37β, maltoside] | 4.4 | > 25 | 24 | 7 | 6.1 | 4.4 | 4.4 | 6 | 5 |  |  |  |  |  |  | 
10 | CON(C1CCC2(C)C(CCC3C2CCC2(C)C(C4=CC(=O)OC4)CCC32O)C1)C1OC(CO)C(OC2OC(CO)C(O)C(O)C2O)C(O)C1O (stereo not drawn) [37α, maltoside] |  |  |  |  |  |  |  |  |  |  | > 25 | > 25 | > 25 | > 25 | > 25 | > 25

From patent US8507411B2, “Neoglycorandomization and digitoxin analogs” (priority 2004, dated 2013)
